In patent US7655676B2, “Use of amide derivative of GE 2270 factor A3 for the treatment of acne” (Naicons S.C.A.R.L., priority 2002, dated 2010):
≈ marks a conversion by molar mass, not a printed value. Where “and” joins values, the source holds several entries; their conditions need not be identical. Identical values can stand only once.

Experiments:
[1] = system: clinical isolates of P. acnes displaying antibiotic-sensitive phenotypes; experiment: MIC against clinical isolates of P. acnes displaying antibiotic-sensitive phenotypes (Table 3); format: cell-based, Propionibacterium acnes; conditions: Cutibacterium acnes
Source text: (§3) MIC50 and MIC90 means minimum inhibitory concentration capable of inhibiting 50% and 90%, respectively, of the strains tested.

[2] = system: clinical isolates of P. acnes displaying antibiotic-resistant phenotypes; experiment: MIC against clinical isolates of P. acnes displaying antibiotic-resistant phenotypes (Table 2); format: cell-based, Propionibacterium acnes; conditions: for Cumul. %: resistant isolates
Source text: as §3

[3] = system: Staphylococcus epidermidis; experiment: MIC in vitro, Staphylococcus epidermidis (Table 1); format: cell-based; conditions: ATCC 12228, MH
Source text: (§1) In particular, bacterial strains which should not be affected by topical administration of the anti-acne candidate compound are Staphylococcus aureus, Staphylococcus epidermidis, and Streptococcus pyogenes strains.
(§2) The tests have been carried out in comparison with antibiotic GE 2270 and four representative compounds (B, C, D and E) described in U.S. Pat. No. 5,599,791.

[4] = system: Streptococcus pyogenes; experiment: MIC in vitro, Streptococcus pyogenes (Table 1); format: cell-based; conditions: C 203, MH
Source text: as §1, §2

[5] = system: Staphylococcus aureus; experiment: MIC in vitro, Staphylococcus aureus (Table 1); format: cell-based
Source text: as §1, §2

[6] = system: Propionibacterium acne; experiment: MIC in vitro, Propionibacterium acne strains (Table 1); format: cell-based, Propionibacterium acnes
Source text: as §1, §2

Molecule | MIC90 [1] | MIC50 ([2]; Cutibacterium acnes) | MIC90 ([2]; Cutibacterium acnes) | N° isolates ([2]; resistant isolates with MIC 512 μg/ml) | N° isolates ([2]; resistant isolates with MIC 1024 μg/ml) | N° isolates ([2]; resistant isolates with MIC 2048 μg/ml) | Cumul. % ([2]; cumulative at MIC 512 μg/ml) | Cumul. % ([2]; cumulative at MIC 1024 μg/ml) | Cumul. % ([2]; cumulative at MIC 2048 μg/ml) | MIC [3] | MIC [4] | MIC ([5]; MRSA, MH) | MIC ([5]; Smith ATCC 19636, MH + 30% bovine serum) | MIC ([5]; Smith ATCC 19636, Mueller Hinton (MH)) | MIC ([6]; ATCC 6919, Wilkins Chalgren (WC)) | MIC ([6]; ATCC 6922, WC) | MIC ([6]; ATCC 25746, WC) | MIC ([6]; clinical isolate, WC (one table line per isolate)) | MIC ([6]; clinical isolate, medium not given)
CC[C@H]1OC(=O)[C@H](C)[C@@H](O[C@H]2C[C@@](C)(OC)[C@@H](O)[C@H](C)O2)[C@H](C)[C@@H](O[C@@H]2O[C@H](C)C[C@H](N(C)C)[C@H]2O)[C@](C)(O)C[C@@H](C)C(=O)[C@H](C)[C@@H](O)[C@]1(C)O [Erythromycin] | 0.125 µg/mL (≈ 0.17 µM) | 1020 µg/mL (≈ 1400 µM) | 2050 µg/mL (≈ 2790 µM) | 1 | 11 | 3 | 7% | 80% | 100% |  |  |  |  |  |  |  |  |  | 
GE 2270 |  |  |  |  |  |  |  |  |  | <0.125 µg/mL | 0.25 µg/mL | <0.125 µg/mL | 0.25 µg/mL | 0.06 µg/mL | <0.125 µg/mL | <0.125 µg/mL | <0.125 µg/mL | <0.125 µg/mL and 0.125 µg/mL | <0.125 µg/mL
